Legend:
[1] = target: T1, FTase (Rattus norvegicus, UniProt Q02293+Q04631); assay: In vitro FTase assay (K-Ras4B substrate, [3H]FPP); type: biochemical
T1 construct: purchased JENA BIOSCIENCE
Description: To further characterize the pilot library, inhibitors of protein farnesyltransferase were identified. This was accomplished by using K-Ras4B as a substrate protein, tritiated farnesylpyrophosphate ([^3H]FPP) and protein farnesyltransferase. See Finegold, A. A., Johnson, D. I., Farnsworth, C. C., Gelb, M. H., Judd, S. R., Glomset, J. A. and Tamanoi, F. (1991) Protein geranylgeranyltransferase of Saccharomyces cerevisiae is specific for Cys-Xaa-Xaa-Leu motif and requires the CDC43 gene product but not the DPR1 gene product. Proc. Natl. Acad. Sci. USA 88, 4448-4452. […] On the other hand, the structure of the compounds P1-F11, P2-B7 and P2-E9 resemble those of GGTIs. The FTI P1-F11 resembles the GGTI P1-F10, while the FTI P2-B7 resembles the GGTI P2-C10. The FTI P2-E9 is similar to the GGTI P2-G3. Similarity of some GGTI and FTI compounds may point to common structural features between the two closely related enzymes. As described before, FTase and GGTase I have similar three-dimensional structures and a shared alpha subunit. On the other hand, FTase specific inhibitors may recognize a region(s) that is different between the two enzymes.
Examples 2-8 illustrate assays of bioactivity. These methods are applicable to the compounds of the present invention having the particular linkers and scaffolds described herein, to determine their activity. […] Varying concentrations of the two compounds were added to each enzyme reaction. The FTase (protein farnesyltransferase) assay was carried out using K-Ras4B as a substrate protein, FTase (JENA Bioscience, San Diego, Calif.) and [3H]farnesyl pyrophosphate. Incubation was for 30 min at 37° C.
GGTase-I and FTase activities were determined by following the incorporation of radiolabeled isoprenoid [^3H]-geranylgeranyl or [^3H]-farnesyl into substrate proteins. FTase or GGTase-I (50 nM) were used to initiate reactions containing 0.4 μM of [^3H]-FPP or 0.5 μM of [^3H]-GGPP and 2 μM of MBP-tagged substrates (K-Ras4B for FTase; RhoA for GGTase-I) in 20 μl of buffer {50 mM Tris-HCl (pH 7.5), 10 mM MgCl2, […] and 5 mM DTT}. Inhibitors were added at the indicated concentrations. The final DMSO concentration was 2.5% for all samples.
Reactions were carried out for 10 min at 30° C. The reaction mixture was spotted onto a filter paper, treated with 10% trichloroacetic acid (TCA) followed by ethanol and acetone washing. The filter was counted using a scintillation counter. Kinetic assays in which the GGPP concentration was varied employed fixed concentrations of GGTase-I and RhoA, and reactions were carried out for 5 min. Similarly, fixed concentrations of GGTase-I and GGPP were used when the amount of RhoA was varied.

[2] = target: T2, RabGGTase (Rattus norvegicus, UniProt Q08602+Q08603); assay: In vitro RabGGTase (GGTase-II) assay with REP-1; type: biochemical
T2 construct: purchased JENA BIOSCIENCE
T2 sequence (Q08602 1-567): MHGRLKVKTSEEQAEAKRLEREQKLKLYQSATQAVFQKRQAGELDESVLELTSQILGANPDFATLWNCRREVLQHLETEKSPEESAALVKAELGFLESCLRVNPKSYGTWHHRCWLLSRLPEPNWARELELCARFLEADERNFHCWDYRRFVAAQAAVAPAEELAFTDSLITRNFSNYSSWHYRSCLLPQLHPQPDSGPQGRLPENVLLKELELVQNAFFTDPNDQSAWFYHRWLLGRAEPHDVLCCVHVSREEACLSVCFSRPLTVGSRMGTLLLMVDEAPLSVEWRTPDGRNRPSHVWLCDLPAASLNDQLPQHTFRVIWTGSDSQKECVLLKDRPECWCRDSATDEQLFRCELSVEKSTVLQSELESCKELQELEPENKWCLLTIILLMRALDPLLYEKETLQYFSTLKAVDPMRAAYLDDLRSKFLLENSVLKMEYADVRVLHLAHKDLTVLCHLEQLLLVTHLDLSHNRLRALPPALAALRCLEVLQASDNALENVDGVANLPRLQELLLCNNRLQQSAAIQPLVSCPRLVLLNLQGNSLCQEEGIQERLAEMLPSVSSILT
T2 sequence (Q08603 1-331): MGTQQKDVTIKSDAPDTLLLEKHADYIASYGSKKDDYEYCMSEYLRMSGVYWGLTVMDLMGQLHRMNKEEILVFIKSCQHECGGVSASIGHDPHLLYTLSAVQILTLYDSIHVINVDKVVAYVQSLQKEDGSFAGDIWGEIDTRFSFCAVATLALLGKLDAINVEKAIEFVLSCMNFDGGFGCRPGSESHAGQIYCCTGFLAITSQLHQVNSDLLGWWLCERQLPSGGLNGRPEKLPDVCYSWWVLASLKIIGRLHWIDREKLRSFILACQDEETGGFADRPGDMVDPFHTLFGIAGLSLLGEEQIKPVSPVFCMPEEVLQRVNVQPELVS
Description: The GGTase-I assay was carried out using RhoA as a substrate protein, GGTase-I (JENA Bioscience) and [3H]geranylgeranyl pyrophosphate. Incubation was for 30 min at 37° C. GGTase-II (or RabGGTase) assay was carried out using YPTI as a substrate protein, GGTase-II (Calbiochem, San Diego, Calif.) plus REP1 (Calbiochem) and [3H]geranylgeranyl pyrophosphate. Incubation was for 30 min at 37° C. FIGS. 20D-20F show the three dimensional structure of GGTase I (D), FTsse (E) and GGTase II (F) which can be obtained from X-ray diffraction studies of protein crystals.
For RabGGTase assays, the reaction contained the following components in 20 μl; 0.625 μl of [^3H]-GGPP (0.7 μM), 25 nM RabGGTase, 0.6 μM REP-1, 0.6 μM purified Rab7 or Ypt1 protein, 40 mM HEPES (pH 7.5), 150 mM NaCl, 5 mM DTT, 3 mM MgCl2 and 0.3% CHAPS. Reactions were carried out for 20 min at 37° C. and the products were analyzed as described above for the GGTase-I reaction. Graphing and Michaelis-Menten analysis were performed using Prism version5 (GraphPad, San Diego Calif.).

[3] = tested on: K562 cells; assay: K562 cell growth inhibition; type: cell-based, human; conditions: 72 hours
Outline: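 Human erythroleukemia K562 cells exposed to compound for 72 hours. Cell number measured with CCK-8 and viability expressed relative to the DMSO control.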

[4] = concentration increased to 100,000 nM

Row | SMILES | inhibition of FTase activity (FIG. 16) ([1]; P3-D9, P3-E5: concentration increased to 100 (unit not given)) | inhibition of FTase activity ([1]; concentration increased to 50,000 nM) | inhibition of RabGGTase ([2]; even at 50,000 nM) | inhibition of proliferation of K562 cells ([3]; FIG. 23) | inhibition of FTase activity [1, 4] | inhibition of RabGGTase activity [2, 4] | IC50 ([3]; Homo sapiens, K562, FIG. 36A, read-out: IC50, inhibition of proliferation of K562 cells) [nM]
1 | Cc1ccccc1S(=O)(=O)N1[C@@H](c2cccc(Cl)c2)C(C(=O)O)=CC[C@H]1c1ccc(Cl)cc1 [P3-E5] | no inhibition of FTase activity | no significant inhibition | little inhibition | inhibit the growth of the K562 cells | – | – | –
2 | Cc1ccccc1S(=O)(=O)N1C(c2ccc(Cl)cc2)C(C(=O)NC(Cc2ccccc2)C(N)=O)=CC1C(C)(C)C (stereo not shown) [P61-A6] | – | – | – | – | No significant inhibition | No significant inhibition | 2200

From US8815935B2, “Inhibitors of protein prenyltransferases” (The Regents of the University of California, priority 2008, dated 2014)
